Measured values published in patent US4018801A, “Substituted oxirane compounds” (The Dow Chemical Company, priority 1975, dated 1977).

How the values were obtained:
[1] = system: Cultured Rice; experiment: Pre-emergent control of seed germination, soil drench; type: in vivo; settings: about 2 weeks
Text: (§1) Four parts by weight of the compound, 0.08 part of sorbitan trioleate (Span 85), and 0.02 part of a sorbitan monooleate polyoxyethylene derivative (Tween 80) are dipersed in 40 milliliters of acetone to produce a concentrate composition in the form of a water-dispersible liquid containing the predetermined oxirane compound as the sole active agent.
(§2) A portion of each of these concentrate compositions were separately dispersed in portions of water to provide aqueous compositions, containing 0.44 pound of the oxirane compound per 100 gallons of ultimate aqueous mixture.
(§3) The aqueous compositions were then employed for the treatment of seed beds of good agricultural soil which had been prepared and seeded with the seeds of various grass species and broadleaf plants. The grass species included white winter wheat, cultured rice, pigweeds, crabgrass, cheat grass, wild oats, Johnson grass, barnyard grass and yellow foxtail; and the broadleaf plants included corn. In the treating operations, a predetermined quantity of each of the compositions was applied to separate seedbeds as a soil drench at a rate of about 0.43 acre inch of aqueous composition per acre. The quantities were controlled to supply a substantial uniform dosage in a seedbed equivalent to 1.0, 2.0 and 5.0 pounds of the oxirane compound per acre. These dosages correspond, respectively, to a concentration, within the soil depth penetrated of about 1.6, 3.2 and 8.0 parts by weight of the oxirane compound per million parts by weight of soil. Other seedbeds were similarly seeded with the named plant species but were left untreated to serve as checks.
(§4) After about 2 weeks the seedbeds were examined to ascertain what control of the growth of seeds had been obtained.
(§5) An aqueous composition containing 2-(α,α,α -trifluoro-m-tolyl)-2-(2,2,2-trichloroethyl)oxirane was prepared as described in Example 32. The composition was then employed according to the procedures of Example 32 except that lower concentrations of the oxirane compound were employed in the composition.
(§6) The percent control of the various plant species at the employed dosage rate of the 2-(α,α,α-trifluoro-m-tolyl)- 2-(2,2,2-trichloroethyl) supplied by the composition is set forth in the following Table IV.

[2] = system: White Winter Wheat; experiment: as above; type: in vivo; settings: about 2 weeks
Text: as §1, §2, §3, §4, §5, §6

[3] = system: Pigweeds; experiment: as above; type: in vivo; settings: Pig Weeds, about 2 weeks
Text: as §1, §2, §3, §4
(§7) were prepared as in Example 32 and similarly employed for the pre-emergencetreatment of various plant species.
as §5, §6

[4] = system: Yellow Foxtail; experiment: as above; type: in vivo; settings: Yellow Foxtail, 1.0 pounds per surface acre, about 2 weeks
Text: as §1, §2, §3, §4, §7, §5, §6

[5] = system: Wild Oats; experiment: as above; type: in vivo; settings: Wild Oats, about 2 weeks
Text: as §1, §2, §3, §4, §7, §5, §6

[6] = system: Barnyard Grass; experiment: as above; type: in vivo; settings: Barnyard Grass, about 2 weeks
Text: as §1, §2, §3, §4, §7, §5, §6

[7] = system: Corn; experiment: as above; type: in vivo; settings: about 2 weeks
Text: as §1, §2, §3
After about 2 weeks the seedbeds were examined to ascertain what control of the growth of seeds had been obtained. […]
as §5, §6

[8] = system: Crabgrass; experiment: as above; type: in vivo; settings: Crabgrass, about 2 weeks
Text: as §1, §2, §3, §4, §7
(§8) Separate aqueous compositions containing the 2-(m-chlorophenyl)-2-(2,2,2-trichloroethyl)oxirane (Cmpd. A) and 2-(m-bromophenyl)-2-(2,2,2-trichloroethyl)oxirane (Cmpd. C) compounds of the present invention were prepared as in Example 32 for comparative per-emergence herbicide tests against noxious grass species with the known 2 -(p-chlorophenyl)-2-(2,2,2-trichloroethyl)oxirane (Cmpd. B) compound and 2-(p-bromophenyl)-2-(2,2,2-trichloroethyl)oxirane (Cmpd. D). The pre-emergence tests were conducted in Example 32 and the results of such tests are set forth below in Table III.
as §5, §6

[9] = system: Johnson Grass; experiment: as above; type: in vivo; settings: Johnson Grass, about 2 weeks
Text: as §1, §2, §3, §4, §7, §8, §5, §6

[10] = system: Candida albicans; experiment: Control of fungal plants on nutrient agar; type: cell-based; settings: 500 parts by weight per million
Description: (§9) Separate acetone compositions containing 100 and 500 parts, respectively, of each of 2-(p-nitrophenyl)- 2-(2,2,2-trichloroethyl)oxirane and 2-(m-nitrophenyl)- 2-(2,2,2-trichloroethyl)oxirane compounds per million parts by weight of ultimate mixture were prepared by dissolving a pre-determined amount of each of the above compounds in acetone to give the desired concentrations. The solutions were dispersed in melted nutrient agar to produce culture media for fungal plants. The agar solutions were poured into petri dishes and allowed to solidify. The solidified agar surface in each petri dish was inoculated with one species of a fungal plant; the plants employed being Staphylococcus aureus, Candida albicans, Trichophton mentagrophytes, Bacillus subtilis, Aspergillus terreus, Candida pelliculosa, Pullularia pullulans, Mycobacterium phlei, Cephaloascus fragans and Aerobacter aerogenes.
(§10) The inoculation was carried out by applying droplets of a solution containing the fungal plants to the agar surfaces. The inoculated petri dishes were then incubated for an appropriate period of time and under conditions conducive to the growth of the fungal plants involved.
(§11) After incubation, the petri dishes were examined to determine the degree of control of the fungal plants.

[11] = system: Candida pelliculosa; experiment: Control of fungal plants on nutrient agar; type: cell-based; settings: 500 parts by weight per million
Description: as §9, §10, §11

[12] = system: Cephaloascus fragans; experiment: Control of fungal plants on nutrient agar; type: cell-based; settings: 500 parts by weight per million
Description: as §9, §10, §11

[13] = system: Trichophton mentagrophytes; experiment: Control of fungal plants on nutrient agar; type: cell-based; settings: 500 parts by weight per million
Description: as §9, §10, §11

[14] = system: Mycobacterium phlei; experiment: Control of fungal plants on nutrient agar; type: cell-based; settings: 500 parts by weight per million
Description: as §9, §10, §11

[15] = system: Staphylococcus aureus; experiment: Control of fungal plants on nutrient agar; type: cell-based; settings: 500 parts by weight per million
Description: as §9, §10, §11

[16] = system: Pullularia pullulans; experiment: Control of fungal plants on nutrient agar; type: cell-based; settings: 500 parts by weight per million
Description: as §9, §10, §11

[17] = system: Aspergillus terreus; experiment: Control of fungal plants on nutrient agar; type: cell-based; settings: 500 parts by weight per million
Description: as §9, §10, §11

[18] = system: Bacillus subtilis; experiment: Control of fungal plants on nutrient agar; type: cell-based; settings: 500 parts by weight per million
Description: as §9, §10, §11

[19] = system: Cheat Grass; experiment: Pre-emergent control of seed germination, soil drench; type: in vivo; settings: 5.0 pounds per surface acre, about 2 weeks
Text: as §1, §2
as §3, with “These dosages correspond, respectively, to a concentration, within the soil depth penetrated of about 1.6, 3.2 and 8.0 parts by weight of the oxirane compound per million parts by weight of soil. Other seedbeds were similarly seeded with the named plant species but were left untreated to serve as checks.” left out

O=[N+]([O-])c1cccc(C2(CC(Cl)(Cl)Cl)CO2)c1 (centres unmarked) [Example 2, 2-(m-nitrophenyl)-2-(2,2,2-trichloroethyl)oxirane]
Percent Pre-Emergent Control of Seed Germination ([1]; 1.0 pounds per surface acre): 100%
Percent Pre-Emergent Control of Seed Germination ([1]; 2.0 pounds per surface acre): 95%
Percent Pre-Emergent Control of Seed Germination ([1]; 5.0 pounds per surface acre): 100%
Percent Pre-Emergent Control of Seed Germination ([2]; 1.0 pounds per surface acre): 90%
Percent Pre-Emergent Control of Seed Germination ([2]; 2.0 pounds per surface acre): 50%
Percent Pre-Emergent Control of Seed Germination ([2]; 5.0 pounds per surface acre): 95%
Percent Pre-Emergent Control of Seed Germination ([3]; 1.0 pounds per surface acre): 85%
Percent Pre-Emergent Control of Seed Germination ([3]; 2.0 pounds per surface acre): 95%
Percent Pre-Emergent Control of Seed Germination ([3]; 5.0 pounds per surface acre): 95%
Percent Pre-Emergent Control of Seed Germination [4]: 100%
Percent Pre-Emergent Control of Seed Germination ([5]; 1.0 pounds per surface acre): 40%
Percent Pre-Emergent Control of Seed Germination ([5]; 2.0 pounds per surface acre): 50%
Percent Pre-Emergent Control of Seed Germination ([5]; 5.0 pounds per surface acre): 80%
Percent Pre-Emergent Control of Seed Germination ([6]; 1.0 pounds per surface acre): 50%
Percent Pre-Emergent Control of Seed Germination ([6]; 2.0 pounds per surface acre): 50%
Percent Pre-Emergent Control of Seed Germination ([6]; 5.0 pounds per surface acre): 95%
Percent Pre-Emergent Control of Seed Germination ([7]; 1.0 pounds per surface acre): 100%
Percent Pre-Emergent Control of Seed Germination ([7]; 2.0 pounds per surface acre): 50%
Percent Pre-Emergent Control of Seed Germination ([7]; 5.0 pounds per surface acre): 0%
Percent Pre-Emergent Control of Seed Germination ([8]; 1.0 pounds per surface acre): 95%
Percent Pre-Emergent Control of Seed Germination ([8]; 2.0 pounds per surface acre): 100%
Percent Pre-Emergent Control of Seed Germination ([8]; 5.0 pounds per surface acre): 100%
Percent Pre-Emergent Control of Seed Germination ([9]; 1.0 pounds per surface acre): 70%
Percent Pre-Emergent Control of Seed Germination ([9]; 2.0 pounds per surface acre): 85%
Percent Pre-Emergent Control of Seed Germination ([9]; 5.0 pounds per surface acre): 95%
degree of control of the fungal plants [10]: complete control and kill
degree of control of the fungal plants [11]: complete control and kill
degree of control of the fungal plants [12]: complete control and kill
degree of control of the fungal plants [13]: complete control and kill
degree of control of the fungal plants [14]: complete control and kill
degree of control of the fungal plants [15]: complete control and kill
degree of control of the fungal plants [16]: complete control and kill
degree of control of the fungal plants [17]: complete control and kill
degree of control of the fungal plants [18]: complete control and kill
Percent Pre-Emergent Control of Seed Germination [19]: 100%
